Reference: US4483853A, “Amino acid isomers, their production and their medicinal use” (priority 1981, dated 1984)
Read-outs that look alike come from different tables or passages of the source.

What was measured:
sound-induced seizures = experiment: Sound-induced (audiogenic) seizures in DBA/2 mice, i.c.v. or i.p. (WR, clonus, tonus); type: in vivo; settings: for order of potency: congeneric series of phosphonic acid analogues, i.c.v. DBA/2 mice; for Minimum dose to suppress WR / ED50 Clonus / ED50 Tonus / ED50 WR / activity (in words): i.c.v., DBA/2 mice; for Minimum dose to suppress WR: 45 minutes before sound, P < .01; for ED50 WR: wild running phase
Method: (§1) Dicarboxylic amino acids and their thio-analogues were tested as potential anticonvulsants in animal models of epilepsy by being administered intracerebroventricularly (i.c.v.) or intraperitoneally (i.p.) in mice (either DBA/2 mice showing sound-induced seizures, or Swiss S mice given a just-convulsant dose of pentylenetetrazol, s.c.) or intravenously in baboons, Papio papio, with photosensitive epilepsy. A close correlation was found between the ability of antagonists to block excitation due to NMDA (N-methyl-D-aspartic acid) and suppression of sound-induced seizures following i.c.v. injection in DBA/2 mice. […] Following systemic administration in mice 2-amino-7-phosphonoheptanoic acid was active against sound-induced seizures (0.1-0.33 mmoles/kg, i.p.) and against pentylenetetrazol seizures (1.2 mmoles/kg). It is also active against photosensitive epileptic responses in baboons (1.0 mmoles/kg, i.v.)
(i) Anticonvulsant activity of excitatory amino acid antagonists in DBA/2 mice
DBA/2 mice were chosen as being an inbred strain in which, within a critical age range, a fixed sequence of seizure response can be induced by a loud sound. Groups of DBA/2 mice (N=6 to 10), 21 to 28 days old, were injected intracerebroventricularly under light ether anesthesia with 10 μl of drug solution or phosphate buffer alone (pH 7.3). Auditory stimulation (electric bell generating 109 dB at mouse level) was applied 45 minutes later for 60 seconds or until tonic extension was observed and the incidence and timing of the phases of the seizure response were recorded. These included an initial wild running phase (WR) followed by myocolonus, tonic flexion, and extension and, frequently, respiratory arrest. Seizure response was scored as described in Eur. J. Pharmacol 59, 75 (1979), and comparisons between groups of control and drug-treated animals were made by using Fisher's exact probability test. Successive doses, with a geometric factor of 3, were tested until an adequate log dose-response curve (three to six points) could be constructed for each antagonist for each phase of the seizure response, and ED50 values were graphically determined. A rank order of anticonvulsant potency was allocated to each antagonist for comparison with iontophoretic data; O denoting no activity and X to XXXX denoting increasingly marked activity.
(§2) Studies of audiogenic seizures were performed as described in Example(i). For intraperitoneal administration the antagonist was injected with 0.1 ml of saline 45 minutes before testing. Antagonism of pentylenetetrazol (PTZ: threshold) seizures was studied in random-bred Swiss mice (Tuck T/O strain: 28 days old; 20 to 23 g). Mice in groups (N=10) received pentylenetetrazol (85 mg/kg: 0.85 percent solution in 0.9 percent sodium chloride) subcutaneously in a loose fold of skin on the back of the neck 45 minutes after intracerenroventricular or intraperitoneal administration of drug or vehicle. During the 30-minute observation period sustained rhythmic clonic jerking with tonic spasms occured in 90 to 100 percent of control mice. The incidence and timing of clonic episodes was recorded with absence of sustained clonic jerking (no episode of 5 seconds duration or longer) being defined as protection. The ED50 values and 95 percent fiducial limits were estimated by using the method of moving averages (by the method described in Biometrics 8, 249 (1952) with data from four successive dose levels.

[1] = tested on: pentylenetetrazol seizures; experiment: Pentylenetetrazol-induced seizures in Swiss S mice; type: in vivo
Method: as §1, §2

[2] = tested on: photosensitive epileptic responses; experiment: Photosensitive epilepsy in baboons; type: in vivo, Papio papio; settings: i.v.
Method: as §1

[3] = tested on: ibotenic acid-excited receptors; experiment: Block of ibotenic acid-excited receptors; settings: CNS receptors
[4] = tested on: Kainic acid-excited receptors; experiment: Block of kainic acid-excited receptors; settings: CNS receptors
quisqualate receptor = settings: cited from earlier work
NMDA = settings: cited from earlier work
[5] = tested on: kainate-induced excitation; settings: cited from earlier work

Row | SMILES | order of potency (sound-induced seizures) | Minimum dose to suppress WR (sound-induced seizures) | ED50 Clonus (sound-induced seizures) | ED50 Tonus (sound-induced seizures) | ED50 WR (sound-induced seizures) | other results
1 | NC(CCP(=O)(O)O)C(=O)O (racemic) [(±)-2-Amino-4-phosphonobutyric acid, reference compound] | 2-amino-7-phosphonoheptanoate>2-amino-5-phosphonopentanoic acid>2-amino-6-phosphonohexanoic acid>2-amino-4-phosphonobutyric acid |  |  |  |  | 
2 | NC(CCCP(=O)(O)O)C(=O)O (racemic) [(±)-2-Amino-5-phosphonopentanoic acid] | 2-amino-7-phosphonoheptanoate>2-amino-5-phosphonopentanoic acid>2-amino-6-phosphonohexanoic acid>2-amino-4-phosphonobutyric acid | 0.1 μ mole | 0.022 μ mole | 0.025 μ mole | 0.046 μ mole | 
3 | NC(CCCCP(=O)(O)O)C(=O)O (racemic) [(±)-2-Amino-6-phosphonohexanoic acid] | 2-amino-7-phosphonoheptanoate>2-amino-5-phosphonopentanoic acid>2-amino-6-phosphonohexanoic acid>2-amino-4-phosphonobutyric acid | 0.25 μ mole | 0.14 μ mole | 0.15 μ mole | 0.17 μ mole | 
4 | NC(CCCCCP(=O)(O)O)C(=O)O (racemic) [(±)-2-Amino-7-phosphonoheptanoic acid, (±)2-amino-7-phosphonoheptanoic acid] | 2-amino-7-phosphonoheptanoate>2-amino-5-phosphonopentanoic acid>2-amino-6-phosphonohexanoic acid>2-amino-4-phosphonobutyric acid | 0.01 μ mole |  | 0.0008 μ mole | 0.004 μ mole | minimal effective dose (sound-induced seizures; Mus musculus, ip, 0.75 h, read-out: Minimum dose to suppress WR): 330 µmol/kg; ED50 (sound-induced seizures; Mus musculus, ip, read-out: ED50 Clonus): 40 µmol/kg; ED50 (sound-induced seizures; Mus musculus, ip, read-out: ED50 Tonus): 40 µmol/kg; ED50 (sound-induced seizures; Mus musculus, ip, read-out: ED50 WR): 180 µmol/kg; active against sound-induced seizures, dose (sound-induced seizures; mice, i.p.): 0.1 to 0.33 mmol/kg; ED50 ([1]; Mus musculus, ip, intraperitoneal, pentylenetetrazol 85 mg/kg s.c., read-out: ED50 V PTZ (95% fiducial limits)): 1180 µmol/kg; ED50 V PTZ (95% fiducial limits) ([1]; intracerebroventricular, pentylenetetrazol 85 mg/kg s.c.): 0.64 (0.19-2.13) μ mole; active against pentylenetetrazol seizures, dose ([1]; mice, systemic administration): 1.2 mmol/kg; active against photosensitive epileptic responses, dose [2]: 1.0 mmol/kg
5 | NC(CCCCCP(=O)(O)O)C(=O)O (single isomer, unassigned; (+)) [(+)-2-Amino-7-phosphonoheptanoic acid] |  | 0.033 μ mole | 0.0018 μ mole | 0.0018 μ mole | 0.0135 μ mole | 
6 | N[C@H](CCCCCP(=O)(O)O)C(=O)O [(-)-2-Amino-7-phosphonoheptanoic acid] |  | 0.0033 μ mole | 0.0008 μ mole | 0.0008 μ mole | 0.0022 μ mole | blocking of ibotenic acid-excited receptors [3]: blocker of ibotenic acid-excited receptors; blocking of Kainic acid-excited receptors [4]: not a blocker of Kainic acid-excited receptors
7 | CCOC(=O)CC[C@H](N)C(=O)OCC [Glutamic acid diethylester, reference compound] |  |  |  |  |  | activity (in words) (sound-induced seizures): inactive; quisqualate receptor antagonism (quisqualate receptor): quisqualate receptor antagonist
8 | N[C@H](CCC(=O)NCC(=O)O)C(=O)O [γ-D-Glutamylglycine, reference compound] |  | 0.1 μ mole | 0.046 μ mole | 0.054 μ mole | 0.058 μ mole | activity (in words) (sound-induced seizures): equipotent with 2-amino-5-phosphonoheptanoic acid; antagonism of NMDA-induced excitation (NMDA): antagonist of both kainate and NMDA-induced excitation; antagonism of kainate-induced excitation [5]: antagonist of both kainate and NMDA-induced excitation
